In ChEMBL document CHEMBL4118284, “Exploration of diphenylalkyloxadiazoles as novel cardiac myosin activator” (Bioorg Med Chem Lett, 2018):

Key:
Bos taurus [1] = species on record: Bos taurus; test: Activation of actin-stimulated bovine cardiac myosin S1 fragment ATPase activity in sarcomere at 10 uM after 10 mins by spectrophotometric analysis relative to control
Gallus gallus = species on record: Gallus gallus; test: Activation of actin-stimulated chicken gizzard smooth muscle myosin S1 fragment ATPase activity at 100 uM after 10 mins by spectrophotometric analysis relative to control
[2] = Activation of actin-stimulated bovine cardiac myosin S1 fragment ATPase activity in sarcomere after 10 mins by spectrophotometric analysis; design: species or system Bos taurus
Bos taurus [3] = species on record: Bos taurus; test: Activation of actin-stimulated bovine cardiac myosin S1 fragment ATPase activity in sarcomere at 1 uM after 10 mins by spectrophotometric analysis relative to control
Oryctolagus cuniculus = species on record: Oryctolagus cuniculus; test: Activation of actin-stimulated rabbit psoas skeletal muscle myosin S1 fragment ATPase activity at 100 uM after 10 mins by spectrophotometric analysis relative to control
Bos taurus [4] = species on record: Bos taurus; test: Activation of actin-stimulated bovine cardiac myosin S1 fragment ATPase activity in sarcomere at 5 uM after 10 mins by spectrophotometric analysis relative to control

Activity (Bos taurus [1])	Activity (Gallus gallus)	EC50 [2]	Activity (Bos taurus [3])	Activity (Oryctolagus cuniculus)	Activity (Bos taurus [4])	Structure (SMILES)
33%	–	–	–	–	–	NS(=O)(=O)c1ccc(-c2nnc(NCCCc3ccccc3)o2)cc1
56.5%	-3.8%	3.35 µM	31.2%	2.2%	49.9%	COC(=O)N1CCN(Cc2cccc(NC(=O)Nc3ccc(C)nc3)c2F)CC1 [OMECAMTIV MECARBIL]
15.9%	–	–	–	–	–	c1ccc(CCCc2nnc(-c3ccncc3)o2)cc1
–	-37.3%	–	–	-54.1%	–	Cc1ccc2c(c1)C(=O)[C@]1(O)CCN(c3ccccc3)C1=N2
18.4%	–	–	–	–	–	COc1ccc(Cc2noc(CCCc3ccccc3)n2)cc1OC
2.5%	–	–	–	–	–	c1ccc(CCCc2nnc(CCCc3ccccc3)o2)cc1
35.9%	–	–	–	–	–	c1ccc(CCCCc2nc(-c3ccccc3)no2)cc1
59.2%	-3.7%	3.27 µM	32.5%	-2.5%	55.2%	c1ccc(CCCc2nnc(-c3ccccc3)o2)cc1
38.7%	–	–	–	–	–	COc1ccc(CCc2nnc(CCCc3ccccc3)o2)cc1OC
4.2%	–	–	–	–	–	Fc1ccc(Cc2nnc(CCCc3ccccc3)o2)cc1
11.9%	–	–	–	–	–	CN(C)S(=O)(=O)c1ccc(CCCc2nnc(-c3ccccc3)o2)cc1
37.2%	–	–	–	–	–	CN(C)S(=O)(=O)c1ccc(CCCc2nc(-c3ccccc3)no2)cc1
62.9%	-3.9%	3.06 µM	33.5%	1.8%	60.2%	c1ccc(CCCc2nnc(Cc3ccccc3)o2)cc1
66.3%	4.2%	3.02 µM	34.1%	3.3%	60.3%	c1ccc(CCCc2nc(Cc3ccccc3)no2)cc1
60.7%	-2.4%	3.18 µM	31.9%	-5.3%	56.4%	c1ccc(CCCc2nc(-c3ccccc3)no2)cc1
58.9%	4.5%	3.48 µM	30%	-2.7%	53.1%	c1ccc(CCCc2nnc(CCC3CCCCC3)o2)cc1

Activity (Bos taurus [1])	Activity (Gallus gallus)	EC50 [2]	Activity (Bos taurus [3])	Activity (Oryctolagus cuniculus)	Activity (Bos taurus [4])	Structure (SMILES)
51%	4.1%	4.5 µM	29.7%	-3.1%	45.3%	c1ccc(CCCc2nnc(CCc3ccccc3)o2)cc1
33.6%	–	–	–	–	–	CN(C)S(=O)(=O)c1ccc(CCc2nnc(CCCc3ccccc3)o2)cc1
50.5%	2.3%	5.25 µM	28.4%	1.9%	42.6%	c1ccc(CCCNc2nnc(-c3ccccc3)o2)cc1
22.9%	–	–	–	–	–	c1ccc(CCCNc2nnc(-c3ccncc3)o2)cc1
8.6%	–	–	–	–	–	c1ccc(CCCCc2nnc(-c3ccncc3)o2)cc1
11.2%	–	–	–	–	–	c1ccc(CCCCc2nnc(C3CCOCC3)o2)cc1
22.5%	–	–	–	–	–	NS(=O)(=O)c1ccc(-c2nnc(CCCc3ccccc3)o2)cc1
32.8%	–	–	–	–	–	c1ccc(CCCCNc2nnc(-c3ccccc3)o2)cc1
41.7%	–	–	–	–	–	COc1ccc(-c2nnc(NCCCc3ccccc3)o2)cc1OC
30.8%	–	–	–	–	–	c1ccc(CCCc2nnc(C3CCOCC3)o2)cc1
35.2%	–	–	–	–	–	c1ccc(CCNc2nnc(-c3ccccc3)o2)cc1
46.8%	–	–	–	–	–	COc1ccc(-c2noc(CCCc3ccccc3)n2)cc1OC
16.1%	–	–	–	–	–	COc1ccc(Cc2nnc(CCCc3ccccc3)o2)cc1OC
37.3%	–	–	–	–	–	COc1ccc(-c2nnc(CCCc3ccccc3)o2)cc1
40.2%	–	–	–	–	–	COc1ccc(-c2nnc(CCCc3ccccc3)o2)cc1OC
